Test: Stability of the amphetacarbamate moiety in solution
Type: physicochemical
Text: As noted above, the existence or identity of amphetamine carbamate or amphetacarbamate per se were not known. Rather, amphetamine carbamate was identified and characterized by analyzing crystals isolated from drug-containing polymer matrices of transdermal amphetamine compositions, and amphetacarbamate was identified the work done to identify and characterize amphetamine carbamate. In addition to the inventions described herein pertaining to transdermal amphetamine compositions and amphetamine transdermal delivery systems, methods for detecting and quantifying amphetamine carbamate had to be developed. […] Thus, for example, typical HPLC assays could not be used.

## (S)-1-phenylpropan-2-ammonium-(S)-(1-phenylpropan-2-yl)carbamate [amphetamine carbamate]
  stability of amphetacarbamate moiety: labile and readily converts to amphetamine
